Data on 21 compounds can be found in patent publication US20250276979A1, “SARS-COV2 MAIN PROTEASE INHIBITORS” (Gilead Sciences, Inc., priority 2024, published 2025).

Molecules are shown by their SMILES. Some results are limits rather than exact numbers.

The test system of this assay is SARS-CoV-2-NLuc in A549-hACE2 cells. As to the kind of experiment: microbe, parasite or virus in culture. The format is cell-based. To be noted: Severe acute respiratory syndrome coronavirus 2, 48 h; read-out: MPro EC50.
On to `COc1ccc(C#N)c(-c2cc3[nH]c(=O)n([C@H]4CCNC(=O)C4)c(=O)c3s2)c1` [Example 26, (S)-2-(2,4-dioxo-3-(2-oxopiperidin-4-yl)-1,2,3,4-tetrahydrothieno[3,2-d]pyrimidin-6-yl)-4-methoxybenzonitrile], for which the EC50 was 2120 nM.

In the case of `COc1ccc(Cl)c(-c2ccc3c(=O)n(C4CCCNC(=O)C4)c(=O)[nH]c3c2)c1` (stereo not drawn) [Example 27, 7-(2-chloro-5-methoxyphenyl)-3-(2-oxoazepan-4-yl)quinazoline-2,4(1H,3H)-dione], the EC50 is 646 nM. To `COc1ccc(Cl)c(-c2cc3c(s2)c(=O)n([C@@H]2CCCNC(=O)C2)c(=O)n3CC#N)c1` [Example 28, (R)-2-(6-(2-chloro-5-methoxyphenyl)-2,4-dioxo-3-(2-oxoazepan-4-yl)-3,4-dihydrothieno[3,2-d]pyrimidin-1(2H)-yl)acetonitrile] belongs 5.87 nM. For the compound `COc1ccc(Cl)c(-c2cc3c(s2)c(=O)n([C@@H]2CCCNC(=O)C2)c(=O)n3CCC#N)c1` [Example 29, (R)-3-(6-(2-chloro-5-methoxyphenyl)-2,4-dioxo-3-(2-oxoazepan-4-yl)-3,4-dihydrothieno[3,2-d]pyrimidin-1(2H)-yl)propanenitrile], the half-maximal effective concentration (EC50) is less than 5.64 nM. Next, `COc1cc(-c2cc3[nH]c(=O)n([C@@H]4CCCNC(=O)C4)c(=O)c3s2)c(Cl)cc1F` [Example 30, (R)-6-(2-chloro-4-fluoro-5-methoxyphenyl)-3-(2-oxoazepan-4-yl)thieno[3,2-d]pyrimidine-2,4(1H,3H)-dione]: 7.73 nM. Turning to `COc1cc(-c2cc3[nH]c(=O)n([C@H]4CCCNC(=O)C4)c(=O)c3s2)c(Cl)cc1F` [Example 31, (S)-6-(2-chloro-4-fluoro-5-methoxyphenyl)-3-(2-oxoazepan-4-yl)thieno[3,2-d]pyrimidine-2,4(1H,3H)-dione], the half-maximal effective concentration (EC50) was 51.2 nM. With `COc1cc(-c2cc3c(s2)c(=O)n([C@@H]2CCCNC(=O)C2)c(=O)n3C)c(Cl)cc1F` [Example 32, (R)-6-(2-chloro-4-fluoro-5-methoxyphenyl)-1-methyl-3-(2-oxoazepan-4-yl)thieno[3,2-d]pyrimidine-2,4(1H,3H)-dione], the half-maximal effective concentration (EC50) was found to be 15.6 nM.

On to `COc1cc(-c2cc3c(s2)c(=O)n([C@H]2CCCNC(=O)C2)c(=O)n3C)c(Cl)cc1F` [Example 33, (S)-6-(2-chloro-4-fluoro-5-methoxyphenyl)-1-methyl-3-(2-oxoazepan-4-yl)thieno[3,2-d]pyrimidine-2,4(1H,3H)-dione], for which the EC50 amounted to 747 nM. Regarding `COc1cc(-c2cc3c(s2)c(=O)n([C@@H]2CCCNC(=O)C2)c(=O)n3CC#N)c(Cl)cc1F` [Example 34, (R)-2-(6-(2-chloro-4-fluoro-5-methoxyphenyl)-2,4-dioxo-3-(2-oxoazepan-4-yl)-3,4-dihydrothieno[3,2-d]pyrimidin-1(2H)-yl)acetonitrile], the half-maximal effective concentration (EC50) is 3.03 nM. Turning to `COc1cc(-c2cc3c(s2)c(=O)n([C@H]2CCCNC(=O)C2)c(=O)n3CC#N)c(Cl)cc1F` [Example 35, (S)-2-(6-(2-chloro-4-fluoro-5-methoxyphenyl)-2,4-dioxo-3-(2-oxoazepan-4-yl)-3,4-dihydrothieno[3,2-d]pyrimidin-1(2H)-yl)acetonitrile], the EC50 came out at 84.6 nM. With `COc1cc(-c2cc3c(s2)c(=O)n([C@@H]2CCCNC(=O)C2)c(=O)n3CC2(C#N)CC2)c(Cl)cc1F` [Example 36, (R)-1-((6-(2-chloro-4-fluoro-5-methoxyphenyl)-2,4-dioxo-3-(2-oxoazepan-4-yl)-3,4-dihydrothieno[3,2-d]pyrimidin-1(2H)-yl)methyl)cyclopropane-1-carbonitrile], the EC50 is less than 4.07 nM.

Consider `COc1cc(-c2cc3c(s2)c(=O)n([C@@H]2CCCNC(=O)C2)c(=O)n3CCNC(C)=O)c(Cl)cc1F` [Example 37, (R)—N-(2-(6-(2-chloro-4-fluoro-5-methoxyphenyl)-2,4-dioxo-3-(2-oxoazepan-4-yl)-3,4-dihydrothieno[3,2-d]pyrimidin-1(2H)-yl)ethyl)acetamide], for which the EC50 is 170 nM. To `COc1cc(-c2cc3c(s2)c(=O)n([C@@H]2CCCNC(=O)C2)c(=O)n3CCOC(F)(F)F)c(Cl)cc1F` [Example 38, (R)-6-(2-chloro-4-fluoro-5-methoxyphenyl)-3-(2-oxoazepan-4-yl)-1-(2-(trifluoromethoxy)ethyl)thieno[3,2-d]pyrimidine-2,4(1H,3H)-dione] belongs 208 nM; to `COc1cc(-c2cc3c(s2)c(=O)n([C@@H]2CCCNC(=O)C2)c(=O)n3CCN2CCCC2=O)c(Cl)cc1F` [Example 39, (R)-6-(2-chloro-4-fluoro-5-methoxyphenyl)-3-(2-oxoazepan-4-yl)-1-(2-(2-oxopyrrolidin-1-yl)ethyl)thieno[3,2-d]pyrimidine-2,4(1H,3H)-dione], 148 nM. To `COc1cc(-c2cc3c(s2)c(=O)n([C@@H]2CCCNC(=O)C2)c(=O)n3CCC(=O)N(C)C)c(Cl)cc1F` [Example 40, (R)-3-(6-(2-chloro-4-fluoro-5-methoxyphenyl)-2,4-dioxo-3-(2-oxoazepan-4-yl)-3,4-dihydrothieno[3,2-d]pyrimidin-1(2H)-yl)-N,N-dimethylpropanamide] belongs 137 nM; to `COc1cc(-c2cc3c(s2)c(=O)n([C@@H]2CCCNC(=O)C2)c(=O)n3Cc2ncn(C)n2)c(Cl)cc1F` [Example 41, (R)-6-(2-chloro-4-fluoro-5-methoxyphenyl)-1-((1-methyl-11H-1,2,4-triazol-3-yl)methyl)-3-(2-oxoazepan-4-yl)thieno[3,2-d]pyrimidine-2,4(1H,3H)-dione], 358 nM; to `CNC(=O)CCn1c(=O)n([C@@H]2CCCNC(=O)C2)c(=O)c2sc(-c3cc(OC)c(F)cc3Cl)cc21` [Example 42, (R)-3-(6-(2-chloro-4-fluoro-5-methoxyphenyl)-2,4-dioxo-3-(2-oxoazepan-4-yl)-3,4-dihydrothieno[3,2-d]pyrimidin-1(2H)-yl)-N-methylpropanamide], 242 nM. Take `COc1cc(-c2cc3c(s2)c(=O)n([C@@H]2CCCNC(=O)C2)c(=O)n3CC(F)F)c(Cl)cc1F` [Example 43, (R)-6-(2-chloro-4-fluoro-5-methoxyphenyl)-1-(2,2-difluoroethyl)-3-(2-oxoazepan-4-yl)thieno[3,2-d]pyrimidine-2,4(1H,3H)-dione]: the concentration for a half-maximal effect (EC50) worked out at 34.4 nM.

For the compound `COc1cnc(Cl)c(-c2cc3[nH]c(=O)n([C@@H]4CCCNC(=O)C4)c(=O)c3s2)c1` [Example 44, (R)-6-(2-chloro-5-methoxypyridin-3-yl)-3-(2-oxoazepan-4-yl)thieno[3,2-d]pyrimidine-2,4(1H,3H)-dione], the concentration giving a half-maximal response (EC50) was determined as 433 nM. Turning to `COc1cc(-c2cc3[nH]c(=O)n([C@@H]4CCCNC(=O)C4)c(=O)c3s2)c(C)cc1F` [Example 45, (R)-6-(4-fluoro-5-methoxy-2-methylphenyl)-3-(2-oxoazepan-4-yl)thieno[3,2-d]pyrimidine-2,4(1H,3H)-dione], the EC50 came to 137 nM. Regarding `COc1cc(-c2cc3[nH]c(=O)n([C@@H]4CCCNC(=O)C4)c(=O)c3s2)c(C#N)cc1F` [Example 46, (R)-2-(2,4-dioxo-3-(2-oxoazepan-4-yl)-1,2,3,4-tetrahydrothieno[3,2-d]pyrimidin-6-yl)-5-fluoro-4-methoxybenzonitrile], the EC50 was 771 nM.
